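Five concentrations, 48 hours, 96-well plates. Definition used: TGI = concentration required for complete inhibition of growth.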
Legend:
Experiment in all cases: growth of human tumour cells (NCI), 48 h
OVCAR-4 ovarian = system: OVCAR-4 ovarian
SNB-19 CNS = system: SNB-19 CNS
SF-295 CNS = system: SF-295 CNS
SF-539 CNS = system: SF-539 CNS
MALME-3M melanoma = system: MALME-3M melanoma
HCT-116 colon = system: HCT-116 colon
NCI-H23 lung = system: NCI-H23 lung
PC-3 prostate = system: PC-3 prostate
SK-MEL-2 melanoma = system: SK-MEL-2 melanoma
MOLT-4 leukemia = system: MOLT-4 leukemia
UACC-62 melanoma = system: UACC-62 melanoma
EKVX NSCLC = system: EKVX NSCLC
MDA-N = system: MDA-N
A549 NSCLC = system: A549 NSCLC
HOP-62 NSCLC = system: HOP-62 NSCLC
OVCAR-3 ovarian = system: OVCAR-3 ovarian
K-562 leukemia = system: K-562 leukemia
KM12 colon = system: KM12 colon
SNB-75 CNS = system: SNB-75 CNS
786-0 renal = system: 786-0 renal
BT-549 breast = system: BT-549 breast
MDA-MB-435 = system: MDA-MB-435
TK-10 renal = system: TK-10 renal
CAKI-1 renal = system: CAKI-1 renal
OVCAR-5 ovarian = system: OVCAR-5 ovarian
HL-60(TB) leukemia = system: HL-60(TB) leukemia
HCT-15 colon = system: HCT-15 colon
MCF7 breast = system: MCF7 breast
COLO 205 colon = system: COLO 205 colon
SN12C renal = system: SN12C renal
DU-145 prostate = system: DU-145 prostate
T-47D breast = system: T-47D breast
HCC-2998 colon = system: HCC-2998 colon
UO-31 renal = system: UO-31 renal
MDA-MB-231 breast = system: MDA-MB-231 breast
NCI-H226 lung = system: NCI-H226 lung
HOP-92 NSCLC = system: HOP-92 NSCLC
SF-268 CNS = system: SF-268 CNS
NCI/ADR-RES ovarian = system: NCI/ADR-RES ovarian
SK-MEL-28 melanoma = system: SK-MEL-28 melanoma
A498 renal = system: A498 renal
HS 578T breast = system: HS 578T breast
IGROV1 ovarian = system: IGROV1 ovarian
HT29 colon = system: HT29 colon
NCI-H522 lung = system: NCI-H522 lung
M14 melanoma = system: M14 melanoma
SK-OV-3 ovarian = system: SK-OV-3 ovarian
RXF 393 renal = system: RXF 393 renal
U251 CNS = system: U251 CNS
LOX IMVI melanoma = system: LOX IMVI melanoma
UACC-257 melanoma = system: UACC-257 melanoma
ACHN renal = system: ACHN renal
SK-MEL-5 melanoma = system: SK-MEL-5 melanoma
OVCAR-8 ovarian = system: OVCAR-8 ovarian
NCI-H460 lung = system: NCI-H460 lung
SW-620 colon = system: SW-620 colon
RPMI-8226 leukemia = system: RPMI-8226 leukemia
CCRF-CEM leukemia = system: CCRF-CEM leukemia
SR leukemia = system: SR leukemia

## N#CC[N+]1(Cc2ccccn2)CCCC1
OVCAR-4 ovarian
  TGI: > 100 µM
SNB-19 CNS
  TGI: > 100 µM
SF-295 CNS
  TGI: > 100 µM
SF-539 CNS
  TGI: > 100 µM
MALME-3M melanoma
  TGI: > 100 µM
HCT-116 colon
  TGI: > 100 µM
NCI-H23 lung
  TGI: > 100 µM
PC-3 prostate
  TGI: > 100 µM
SK-MEL-2 melanoma
  TGI: > 100 µM
MOLT-4 leukemia
  TGI: > 100 µM
UACC-62 melanoma
  TGI: > 100 µM
EKVX NSCLC
  TGI: > 100 µM
MDA-N
  TGI: > 100 µM
A549 NSCLC
  TGI: > 100 µM
HOP-62 NSCLC
  TGI: > 100 µM
OVCAR-3 ovarian
  TGI: > 100 µM
K-562 leukemia
  TGI: > 100 µM
KM12 colon
  TGI: > 100 µM
SNB-75 CNS
  TGI: > 100 µM
786-0 renal
  TGI: > 100 µM
BT-549 breast
  TGI: > 100 µM
MDA-MB-435
  TGI: > 100 µM
TK-10 renal
  TGI: > 100 µM
CAKI-1 renal
  TGI: > 100 µM
OVCAR-5 ovarian
  TGI: > 100 µM
HL-60(TB) leukemia
  TGI: > 100 µM
HCT-15 colon
  TGI: > 100 µM
MCF7 breast
  TGI: > 100 µM
COLO 205 colon
  TGI: > 100 µM
SN12C renal
  TGI: > 100 µM
DU-145 prostate
  TGI: > 100 µM
T-47D breast
  TGI: > 100 µM
HCC-2998 colon
  TGI: > 100 µM
UO-31 renal
  TGI: > 100 µM
MDA-MB-231 breast
  TGI: > 100 µM
NCI-H226 lung
  TGI: > 100 µM
HOP-92 NSCLC
  TGI: > 100 µM
SF-268 CNS
  TGI: > 100 µM
NCI/ADR-RES ovarian
  TGI: > 100 µM
SK-MEL-28 melanoma
  TGI: > 100 µM
A498 renal
  TGI: > 100 µM
HS 578T breast
  TGI: > 100 µM
IGROV1 ovarian
  TGI: > 100 µM
HT29 colon
  TGI: > 100 µM
NCI-H522 lung
  TGI: > 100 µM
M14 melanoma
  TGI: > 100 µM
SK-OV-3 ovarian
  TGI: > 100 µM
RXF 393 renal
  TGI: > 100 µM
U251 CNS
  TGI: > 100 µM
LOX IMVI melanoma
  TGI: > 100 µM
UACC-257 melanoma
  TGI: > 100 µM
ACHN renal
  TGI: > 100 µM
SK-MEL-5 melanoma
  TGI: > 100 µM
OVCAR-8 ovarian
  TGI: > 100 µM
NCI-H460 lung
  TGI: > 100 µM
SW-620 colon
  TGI: > 100 µM
RPMI-8226 leukemia
  TGI: > 100 µM

## C=Cc1nc(C#N)c(N)o1
OVCAR-4 ovarian
  TGI: > 100 µM
SNB-19 CNS
  TGI: > 100 µM
CCRF-CEM leukemia
  TGI: > 100 µM
SF-295 CNS
  TGI: > 100 µM
SF-539 CNS
  TGI: > 100 µM
MALME-3M melanoma
  TGI: > 100 µM
HCT-116 colon
  TGI: > 100 µM
NCI-H23 lung
  TGI: > 100 µM
PC-3 prostate
  TGI: > 100 µM
SK-MEL-2 melanoma
  TGI: > 100 µM
MOLT-4 leukemia
  TGI: > 100 µM
EKVX NSCLC
  TGI: > 100 µM
MDA-N
  TGI: > 100 µM
A549 NSCLC
  TGI: > 100 µM
HOP-62 NSCLC
  TGI: > 100 µM
OVCAR-3 ovarian
  TGI: > 100 µM
K-562 leukemia
  TGI: > 100 µM
KM12 colon
  TGI: > 100 µM
SNB-75 CNS
  TGI: > 100 µM
786-0 renal
  TGI: > 100 µM
BT-549 breast
  TGI: > 100 µM
MDA-MB-435
  TGI: > 100 µM
TK-10 renal
  TGI: > 100 µM
CAKI-1 renal
  TGI: > 100 µM
OVCAR-5 ovarian
  TGI: > 100 µM
HL-60(TB) leukemia
  TGI: > 100 µM
HCT-15 colon
  TGI: > 100 µM
MCF7 breast
  TGI: > 100 µM
COLO 205 colon
  TGI: > 100 µM
SN12C renal
  TGI: > 100 µM
DU-145 prostate
  TGI: > 100 µM
T-47D breast
  TGI: > 100 µM
HCC-2998 colon
  TGI: > 100 µM
UO-31 renal
  TGI: > 100 µM
MDA-MB-231 breast
  TGI: > 100 µM
NCI-H226 lung
  TGI: > 100 µM
HOP-92 NSCLC
  TGI: > 100 µM
SF-268 CNS
  TGI: > 100 µM
NCI/ADR-RES ovarian
  TGI: > 100 µM
SK-MEL-28 melanoma
  TGI: > 100 µM
A498 renal
  TGI: > 100 µM
HS 578T breast
  TGI: > 100 µM
IGROV1 ovarian
  TGI: > 100 µM
HT29 colon
  TGI: > 100 µM
NCI-H522 lung
  TGI: > 100 µM
M14 melanoma
  TGI: > 100 µM
SK-OV-3 ovarian
  TGI: > 100 µM
RXF 393 renal
  TGI: > 100 µM
U251 CNS
  TGI: > 100 µM
LOX IMVI melanoma
  TGI: > 100 µM
UACC-257 melanoma
  TGI: > 100 µM
SK-MEL-5 melanoma
  TGI: > 100 µM
OVCAR-8 ovarian
  TGI: > 100 µM
NCI-H460 lung
  TGI: > 100 µM
SW-620 colon
  TGI: > 100 µM
RPMI-8226 leukemia
  TGI: > 100 µM

## CC(=O)OCC12CCC3C4(C)CCCC(C)(C)C4CCC3(C)C1CC(C1=CC(=O)OC1O)O2 (configuration not stated)
CCRF-CEM leukemia
  TGI: > 10 µM
SF-295 CNS
  TGI: 5.56 µM
MALME-3M melanoma
  TGI: 2.44 µM
NCI-H23 lung
  TGI: 3.86 µM
PC-3 prostate
  TGI: 2.63 µM
MOLT-4 leukemia
  TGI: 0.797 µM
UACC-62 melanoma
  TGI: 4.82 µM
EKVX NSCLC
  TGI: 5.92 µM
MDA-N
  TGI: 2.89 µM
A549 NSCLC
  TGI: > 10 µM
HOP-62 NSCLC
  TGI: 6.45 µM
K-562 leukemia
  TGI: 4.72 µM
SR leukemia
  TGI: 0.846 µM
KM12 colon
  TGI: 3.54 µM
SNB-75 CNS
  TGI: 3.32 µM
786-0 renal
  TGI: 2.28 µM
TK-10 renal
  TGI: 3.31 µM
CAKI-1 renal
  TGI: 2.81 µM
HL-60(TB) leukemia
  TGI: 2.76 µM
HCT-15 colon
  TGI: 2.5 µM
MCF7 breast
  TGI: > 10 µM
COLO 205 colon
  TGI: 4.18 µM
SN12C renal
  TGI: 3.09 µM
DU-145 prostate
  TGI: 6.64 µM
T-47D breast
  TGI: > 10 µM
HCC-2998 colon
  TGI: 3.67 µM
MDA-MB-231 breast
  TGI: 4.44 µM
SK-MEL-28 melanoma
  TGI: 3.44 µM
IGROV1 ovarian
  TGI: 3.6 µM
HT29 colon
  TGI: 3.58 µM
M14 melanoma
  TGI: 2.96 µM
SK-OV-3 ovarian
  TGI: 6.32 µM
RXF 393 renal
  TGI: 3.82 µM
LOX IMVI melanoma
  TGI: 2.54 µM
UACC-257 melanoma
  TGI: 3.63 µM
SK-MEL-5 melanoma
  TGI: 3.44 µM
OVCAR-8 ovarian
  TGI: 3.91 µM
SW-620 colon
  TGI: 6.47 µM
RPMI-8226 leukemia
  TGI: > 10 µM

From PubChem BioAssay (NCI)
